Assay results from patent US9023789B2, “Amylin analogs and pharmaceutical compositions thereof” (Novo Nordisk A/S, priority 2012, dated 2015).
Numbered stars: 1 amine (or outer) side, 2 acyl side, 3 side chain; on linkers, the order of the positions; unused ones are H or OH. Bridge positions count the residues as written; N and C are the ends. Side chains are listed from the residue outwards. Peptide text beside a SMILES is read from it. * marks the point of attachment. C20 diacid = O=C(O)CCCCCCCCCCCCCCCCCCC(=O)*; γGlu = O=C(O)[C@H](CCC(=O)[*:2])N[*:1]

Experiments:
rat calcitonin receptor = target: T1, rat calcitonin receptor (Rattus norvegicus, UniProt P32214); assay: ASSAY (VIII) binding to the rat calcitonin receptor; conditions: Table 7, read-out: rCTR bind IC50
T1 construct: expressed in transfected cells; host or cells: BHK tk'ts 13 (transient, FuGENE 6), membranes
T1 sequence (P32214 25-479 isoform P32214-2 limits assumed): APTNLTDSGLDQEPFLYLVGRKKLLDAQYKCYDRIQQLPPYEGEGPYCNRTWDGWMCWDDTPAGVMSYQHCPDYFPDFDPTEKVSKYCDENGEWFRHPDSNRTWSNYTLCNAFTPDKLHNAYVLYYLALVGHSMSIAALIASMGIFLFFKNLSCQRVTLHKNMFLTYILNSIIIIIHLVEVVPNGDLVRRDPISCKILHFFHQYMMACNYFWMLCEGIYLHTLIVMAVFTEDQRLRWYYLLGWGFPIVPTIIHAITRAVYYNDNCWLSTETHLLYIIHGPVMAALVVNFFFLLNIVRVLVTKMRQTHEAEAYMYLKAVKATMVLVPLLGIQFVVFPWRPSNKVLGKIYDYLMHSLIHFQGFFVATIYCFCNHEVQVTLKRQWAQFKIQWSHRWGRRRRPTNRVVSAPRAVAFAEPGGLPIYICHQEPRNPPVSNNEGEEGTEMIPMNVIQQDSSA
Outline: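 Cell membranes for binding came from BHK tk′ts 13 cells harvested approximately 48 hours after transient transfection with the rat receptor.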

[1] = target: T2, rat amylin receptor (rat calcitonin receptor + rat RAMP 3) (Rattus norvegicus, UniProt P32214+Q9JJ73); assay: ASSAY (VI) binding to the rat amylin receptor; conditions: for IC50: binding to rat amylin receptor, read-out: rAmylin-R bind IC50
T2 construct: expressed in transfected cells; host or cells: BHK tk'ts 13 (transient, FuGENE 6), membranes
T2 sequence (P32214 25-479 isoform P32214-2 limits assumed): T1 sequence (P32214 25-479 isoform P32214-2 limits assumed)
T2 sequence (Q9JJ73 23-147 partner): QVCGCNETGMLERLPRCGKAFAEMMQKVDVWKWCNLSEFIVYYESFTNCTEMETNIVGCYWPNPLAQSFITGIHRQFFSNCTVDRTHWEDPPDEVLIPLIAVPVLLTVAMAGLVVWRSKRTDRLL
Outline: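 Membranes for this rat amylin receptor binding assay came from BHK tk′ts 13 cells. The cells were transiently transfected with rat calcitonin receptor using the FuGENE® 6 reagent from Roche, as the manufacturer recommends. The cells were collected approximately 48 hours after transfection, and membranes were then prepared.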

[2] = Table 7, rat binding selectivity, rCTR IC50 / rAmylin-R IC50
[3] = Table 7a (preferred compounds), rat binding selectivity, rCTR IC50 / rAmylin-R IC50
[4] = ratio of rCTR bind IC50 to rAmylin-R bind IC50

IC50 (rat calcitonin receptor) [nM]	IC50 ([1]; Table 7) [nM]	Ratio rCT/rAmylin binding [1, 2]	Ratio rCT/rAmylin binding [1, 3]	Ratio rCT/rAmylin binding [1, 4]	SMILES
707	2.52	280.1	280.1	280.1	CC[C@H](C)[C@H](NC(=O)[C@H](C)NC(=O)CNC(=O)[C@H](Cc1ccccc1)NC(=O)[C@H](CC(N)=O)NC(=O)[C@@H]1CCCN1C(=O)[C@H](CO)NC(=O)[C@H](CO)NC(=O)[C@H](Cc1c[nH]cn1)NC(=O)[C@H](CCCNC(=N)N)NC(=O)[C@H](CC(C)C)NC(=O)[C@H](Cc1ccccc1)NC(=O)[C@H](CC(N)=O)NC(=O)[C@H](C)NC(=O)[C@H](CC(C)C)NC(=O)[C@H](CCCNC(=N)N)NC(=O)[C@H](CCC(N)=O)NC(=O)[C@@H](NC(=O)[C@H](C)NC(=O)[C@@H]1CSSC[C@H](NC(=O)[C@@H](N)CCCCNC(=O)CC[C@H](NC(=O)CCCCCCCCCCCCC(=O)O)C(=O)O)C(=O)N[C@@H](CC(N)=O)C(=O)N[C@@H]([C@@H](C)O)C(=O)N[C@@H](C)C(=O)N[C@@H]([C@@H](C)O)C(=O)N1)[C@@H](C)O)C(=O)N1CCC[C@H]1C(=O)N[C@@H](CO)C(=O)N[C@@H](CO)C(=O)N[C@H](C(=O)N[C@@H](CC(N)=O)C(=O)N[C@H](C(=O)NCC(=O)N[C@@H](Cc1c[nH]cn1)C(=O)N[C@@H](CC(N)=O)C(=O)N[C@H](C(=O)N[C@@H](Cc1ccc(O)cc1)C(N)=O)[C@@H](C)O)C(C)C)[C@@H](C)O [Example 112]
9.05	0.125	72.4	72.4	72.4	CC[C@H](C)[C@H](NC(=O)[C@H](C)NC(=O)CNC(=O)[C@H](Cc1ccccc1)NC(=O)[C@H](CC(N)=O)NC(=O)[C@@H]1CCCN1C(=O)[C@H](CO)NC(=O)[C@H](CO)NC(=O)[C@H](Cc1c[nH]cn1)NC(=O)[C@H](CCCNC(=N)N)NC(=O)[C@H](CC(C)C)NC(=O)[C@H](Cc1ccccc1)NC(=O)[C@H](Cc1c[nH]cn1)NC(=O)[C@H](C)NC(=O)[C@H](CC(C)C)NC(=O)[C@H](CCCNC(=N)N)NC(=O)[C@H](CCC(N)=O)NC(=O)[C@@H](NC(=O)[C@H](C)NC(=O)[C@@H]1CSSC[C@H](NC(=O)[C@@H](N)CCCCNC(=O)CC[C@H](NC(=O)CCCCCCCCCCCCCCCCCCC(=O)O)C(=O)O)C(=O)N[C@@H](CC(N)=O)C(=O)N[C@@H]([C@@H](C)O)C(=O)N[C@@H](C)C(=O)N[C@@H]([C@@H](C)O)C(=O)N1)[C@@H](C)O)C(=O)N1CCC[C@H]1C(=O)N[C@@H](CO)C(=O)N[C@@H](CO)C(=O)N[C@H](C(=O)N1CCC[C@H]1C(=O)N[C@H](C(=O)NCC(=O)N1CCC[C@H]1C(=O)N[C@@H](CC(N)=O)C(=O)N[C@H](C(=O)N[C@@H](Cc1ccc(O)cc1)C(N)=O)[C@@H](C)O)C(C)C)[C@@H](C)O [Example 116] (H-K([γGlu-C20 diacid])CNTATCATQRLAHFLRHSSPNFGAIPSSTPVGPNTY-NH2; disulfide 2-7)
52.4	0.381	137.4	137.4	137.4	CC[C@H](C)[C@H](NC(=O)[C@H](C)NC(=O)CNC(=O)[C@H](Cc1ccccc1)NC(=O)[C@H](CC(N)=O)NC(=O)[C@@H]1CCCN1C(=O)[C@H](CO)NC(=O)[C@H](CO)NC(=O)[C@H](Cc1c[nH]cn1)NC(=O)[C@H](CCCNC(=N)N)NC(=O)[C@H](CC(C)C)NC(=O)[C@H](Cc1ccccc1)NC(=O)[C@H](CC(N)=O)NC(=O)[C@H](C)NC(=O)[C@H](CC(C)C)NC(=O)[C@H](CCCNC(=N)N)NC(=O)[C@H](CCC(N)=O)NC(=O)[C@@H](NC(=O)[C@H](C)NC(=O)[C@@H]1CSSC[C@H](NC(=O)[C@@H](N)CCCCNC(=O)CC[C@H](NC(=O)CC[C@H](NC(=O)CCCCCCCCCCCCCCCCCCC(=O)O)C(=O)O)C(=O)O)C(=O)N[C@@H](CC(N)=O)C(=O)N[C@@H]([C@@H](C)O)C(=O)N[C@@H](C)C(=O)N[C@@H]([C@@H](C)O)C(=O)N1)[C@@H](C)O)C(=O)N1CCC[C@H]1C(=O)N[C@@H](CO)C(=O)N[C@@H](CO)C(=O)N[C@H](C(=O)N1CCC[C@H]1C(=O)N[C@H](C(=O)NCC(=O)N1CCC[C@H]1C(=O)N[C@@H](CCCNC(=N)N)C(=O)N[C@H](C(=O)N[C@@H](Cc1ccc(O)cc1)C(N)=O)[C@@H](C)O)C(C)C)[C@@H](C)O [Example 119] (H-K([γGlu-γGlu-C20 diacid])CNTATCATQRLANFLRHSSPNFGAIPSSTPVGPRTY-NH2; disulfide 2-7)
18.6	0.3	62.0	62.0	62.0	CC[C@H](C)[C@H](NC(=O)[C@H](C)NC(=O)CNC(=O)[C@H](Cc1ccccc1)NC(=O)[C@H](CC(N)=O)NC(=O)[C@@H]1CCCN1C(=O)[C@H](CO)NC(=O)[C@H](CO)NC(=O)[C@H](Cc1c[nH]cn1)NC(=O)[C@H](CCCNC(=N)N)NC(=O)[C@H](CC(C)C)NC(=O)[C@H](Cc1ccccc1)NC(=O)[C@H](CC(=O)O)NC(=O)[C@H](C)NC(=O)[C@H](CC(C)C)NC(=O)[C@H](CCCNC(=N)N)NC(=O)[C@H](CCC(N)=O)NC(=O)[C@@H](NC(=O)[C@H](C)NC(=O)[C@@H]1CSSC[C@H](NC(=O)[C@@H](N)CCCCNC(=O)CC[C@H](NC(=O)CCCCCCCCCCCCCCCCCCC(=O)O)C(=O)O)C(=O)N[C@@H](CC(N)=O)C(=O)N[C@@H]([C@@H](C)O)C(=O)N[C@@H](C)C(=O)N[C@@H]([C@@H](C)O)C(=O)N1)[C@@H](C)O)C(=O)N1CCC[C@H]1C(=O)N[C@@H](CO)C(=O)N[C@@H](CO)C(=O)N[C@H](C(=O)N[C@@H](CC(N)=O)C(=O)N[C@H](C(=O)NCC(=O)N1CCC[C@H]1C(=O)N[C@@H](CCC(=O)O)C(=O)N[C@H](C(=O)N[C@@H](Cc1ccc(O)cc1)C(N)=O)[C@@H](C)O)C(C)C)[C@@H](C)O [Example 123] (H-K([γGlu-C20 diacid])CNTATCATQRLADFLRHSSPNFGAIPSSTNVGPETY-NH2; disulfide 2-7; N-terminus assumed)
1.61	0.152	10.6	10.6	–	CC[C@H](C)[C@H](NC(=O)[C@H](C)NC(=O)CNC(=O)[C@H](Cc1ccccc1)NC(=O)[C@H](CC(N)=O)NC(=O)[C@@H]1CCCN1C(=O)[C@H](CO)NC(=O)[C@H](CO)NC(=O)[C@H](Cc1c[nH]cn1)NC(=O)[C@H](CCCNC(=N)N)NC(=O)[C@H](CC(C)C)NC(=O)[C@H](Cc1ccccc1)NC(=O)[C@H](CCC(=O)O)NC(=O)[C@H](C)NC(=O)[C@H](CC(C)C)NC(=O)[C@H](CCCNC(=N)N)NC(=O)[C@H](CCC(N)=O)NC(=O)[C@@H](NC(=O)[C@H](C)NC(=O)[C@@H]1CSSC[C@H](NC(=O)[C@@H](N)CCCCNC(=O)CC[C@H](NC(=O)CC[C@H](NC(=O)CCCCCCCCCCCCCCCCCCC(=O)O)C(=O)O)C(=O)O)C(=O)N[C@@H](CC(N)=O)C(=O)N[C@@H]([C@@H](C)O)C(=O)N[C@@H](C)C(=O)N[C@@H]([C@@H](C)O)C(=O)N1)[C@@H](C)O)C(=O)N1CCC[C@H]1C(=O)N[C@@H](CO)C(=O)N[C@@H](CO)C(=O)N[C@H](C(=O)N[C@@H](CC(N)=O)C(=O)N[C@H](C(=O)NCC(=O)N1CCC[C@H]1C(=O)N[C@@H](CCC(=O)O)C(=O)N[C@H](C(=O)N1CCC[C@H]1C(N)=O)[C@@H](C)O)C(C)C)[C@@H](C)O [Example 125] (H-K([γGlu-γGlu-C20 diacid])CNTATCATQRLAEFLRHSSPNFGAIPSSTNVGPETP-NH2; disulfide 2-7 (inferred); N-terminus assumed)
23.4	0.205	114.0	114.0	114.0	CC[C@H](C)[C@H](NC(=O)[C@H](C)NC(=O)CNC(=O)[C@H](Cc1ccccc1)NC(=O)[C@H](CC(N)=O)NC(=O)[C@@H]1CCCN1C(=O)[C@H](CO)NC(=O)[C@H](CO)NC(=O)[C@H](Cc1c[nH]cn1)NC(=O)[C@H](CCCNC(=N)N)NC(=O)[C@H](CC(C)C)NC(=O)[C@H](Cc1ccccc1)NC(=O)[C@H](CCC(=O)O)NC(=O)[C@H](C)NC(=O)[C@H](CC(C)C)NC(=O)[C@H](CCCNC(=N)N)NC(=O)[C@H](CCC(N)=O)NC(=O)[C@@H](NC(=O)[C@H](C)NC(=O)[C@@H]1CSSC[C@H](NC(=O)[C@@H](N)CCCCNC(=O)CC[C@H](NC(=O)CC[C@H](NC(=O)CCCCCCCCCCCCCCCCCCC(=O)O)C(=O)O)C(=O)O)C(=O)N[C@@H](CC(N)=O)C(=O)N[C@@H]([C@@H](C)O)C(=O)N[C@@H](C)C(=O)N[C@@H]([C@@H](C)O)C(=O)N1)[C@@H](C)O)C(=O)N1CCC[C@H]1C(=O)N[C@@H](CO)C(=O)N[C@@H](CO)C(=O)N[C@H](C(=O)N[C@@H](CC(N)=O)C(=O)N[C@H](C(=O)NCC(=O)N1CCC[C@H]1C(=O)N[C@@H](CC(N)=O)C(=O)N[C@H](C(=O)N[C@@H](Cc1ccccc1)C(N)=O)[C@@H](C)O)C(C)C)[C@@H](C)O [Example 127] (H-K([γGlu-γGlu-C20 diacid])CNTATCATQRLAEFLRHSSPNFGAIPSSTNVGPNTF-NH2; disulfide 2-7 (inferred))
